Here are results for 13 molecules from ChEMBL document CHEMBL3046829, “Design, synthesis, and structureactivity relationship study of 5-amido-1-(2,4-dinitrophenyl)-1H-4-pyrazolecarbonitrils as DD-carboxypeptidase/penicillin-binding protein inhibitors with Gram-positive antibacterial activity” (2010).

Test [1] has as its system Staphylococcus aureus. As to the kind of experiment: Antibacterial activity against methicillin-susceptible Staphylococcus aureus ATCC 1112 after 18 hr by NCCLS dilution tube method. The note with it: for MIC: ATCC 1112, 18 h. Format: functional.
In test [2] the test system is Staphylococcus aureus. As to the kind of experiment: Antibacterial activity against methicillin-resistant Staphylococcus aureus after 18 hr by NCCLS dilution tube method. It counts as functional.
Test [3] deals with Klebsiella pneumoniae. As to the kind of experiment: Antibacterial activity against Klebsiella pneumoniae at > 1000 uM after 18 hr by NCCLS dilution tube method. It counts as functional, organism-based.
The test system of test [4] is Pseudomonas aeruginosa. Description: Antibacterial activity against Pseudomonas aeruginosa at > 1000 uM after 18 hr by NCCLS dilution tube method. Format: functional, organism-based.
The test system of test [5] is Klebsiella pneumoniae. Description: Antibacterial activity against Klebsiella pneumoniae after 18 hr by NCCLS dilution tube method. Format: functional.
Test [6] deals with Pseudomonas aeruginosa. Description: Antibacterial activity against Pseudomonas aeruginosa after 18 hr by NCCLS dilution tube method. Format: functional.
A further test deals with Streptococcus pyogenes. Description: Antibacterial activity against Streptococcus pyogenes after 18 hr by NCCLS dilution tube method. Format: functional.
The subject of the next test is Streptococcus pneumoniae. As to the kind of experiment: Antibacterial activity against Streptococcus pneumoniae after 18 hr by NCCLS dilution tube method. Format: functional.

In brackets after ≈: the same amount, converted by molar mass. Activity calls are given as the source filed them. The calls are words filed in the database; no cut-off is given here. A value given as a limit tells only on which side of the number the result lay.

As usually defined, the MIC is the lowest concentration that inhibits growth of the organism. Turning to `N#Cc1cnn(-c2ccc([N+](=O)[O-])cc2[N+](=O)[O-])c1NC(=O)C1CCCCC1`, the MIC in the test with Staphylococcus aureus [1] came out at 195 µM (≈ 75.1 µg/mL); with Staphylococcus aureus [2] it was 391 µM (≈ 150 µg/mL). In addition, the result with Klebsiella pneumoniae [3] and with Pseudomonas aeruginosa [4] was inactive.
Turning to `Cc1onc(-c2ccccc2Cl)c1C(=O)N[C@@H]1C(=O)N2[C@@H]1SC(C)(C)[C@@H]2C(=O)O` [CLOXACILLIN], the MIC is 13.7 µM (≈ 5.97 µg/mL) with Staphylococcus aureus [1] and 94 µM (≈ 41 µg/mL) against Staphylococcus aureus [2].
As to `N#Cc1cnn(-c2ccc([N+](=O)[O-])cc2[N+](=O)[O-])c1NC(=O)C12CC3CC(CC(C3)C1)C2`, the MIC against Klebsiella pneumoniae [5] was over 300 µM; in the test on Staphylococcus aureus [1] it was 57.4 µM (≈ 25.1 µg/mL); with Staphylococcus aureus [2], 57.4 µM (≈ 25.1 µg/mL); in the test with Pseudomonas aeruginosa [6], over 300 µM.
As for `COc1ccc(C(=O)Nc2c(C#N)cnn2-c2ccc([N+](=O)[O-])cc2[N+](=O)[O-])cc1`, the figures for the MIC in the test on Staphylococcus aureus [1] and against Staphylococcus aureus [2] were 31.9 µM (≈ 13 µg/mL) and 15.3 µM (≈ 6.25 µg/mL), respectively.
The like results for `Cc1ccc(C(=O)Nc2c(C#N)cnn2-c2ccc([N+](=O)[O-])cc2[N+](=O)[O-])cc1` were, in that order, 60.5 µM (≈ 23.7 µg/mL) and 63.8 µM (≈ 25 µg/mL).
For the molecule `N#Cc1cnn(-c2ccc([N+](=O)[O-])cc2[N+](=O)[O-])c1NC(=O)c1ccc(Cl)cc1`, the values for the MIC against Staphylococcus aureus [1] and with Staphylococcus aureus [2] were 15.3 µM (≈ 6.32 µg/mL) and 60.5 µM (≈ 25 µg/mL), respectively.
As for `CN(C)c1ccc(C(=O)Nc2c(C#N)cnn2-c2ccc([N+](=O)[O-])cc2[N+](=O)[O-])cc1`, the minimum inhibitory concentration (MIC) against Staphylococcus aureus [1] and in the test on Staphylococcus aureus [2] was 3.8 µM (≈ 1.6 µg/mL) in each case.
Turning to `N#Cc1cnn(-c2ccc([N+](=O)[O-])cc2[N+](=O)[O-])c1NC(=O)c1ccc(Br)cc1`, the MIC with Staphylococcus aureus [1] and against Staphylococcus aureus [2] was 27.4 µM (≈ 12.5 µg/mL) in each case.
Turning to `N#Cc1cnn(-c2ccc([N+](=O)[O-])cc2[N+](=O)[O-])c1NC(=O)c1ccccc1`, the MIC turned out to be 132 µM (≈ 50 µg/mL) against Staphylococcus aureus [1] and 264 µM (≈ 100 µg/mL) against Staphylococcus aureus [2]. Further, the result in the test on Klebsiella pneumoniae [3] and in the test on Pseudomonas aeruginosa [4] was inactive.
With `CC(=O)Nc1c(C#N)cnn1-c1ccc([N+](=O)[O-])cc1[N+](=O)[O-]`, the MIC with Staphylococcus aureus [1] is 316 µM (≈ 99.9 µg/mL); against Streptococcus pyogenes, 100 µg/mL (≈ 316 µM); in the test with Staphylococcus aureus [2] it was 632 µM (≈ 200 µg/mL); with Streptococcus pneumoniae it was 100 µg/mL (≈ 316 µM). Besides, the result with Klebsiella pneumoniae [3] and with Pseudomonas aeruginosa [4] was inactive.
For `CC1=C(C(=O)O)N2C(=O)[C@@H](NC(=O)[C@H](N)c3ccccc3)[C@H]2SC1` [CEPHALEXIN ANHYDROUS], the minimal inhibitory concentration (MIC) against Staphylococcus aureus [1] turned out to be 4.6 µM (≈ 1.6 µg/mL); with Staphylococcus aureus [2], 72 µM (≈ 25 µg/mL).
The like results for `N#Cc1cnn(-c2ccc([N+](=O)[O-])cc2[N+](=O)[O-])c1NC(=O)c1ccc(F)cc1` were, in that order, 126 µM (≈ 50.1 µg/mL) and 252 µM (≈ 100 µg/mL).
Consider `N#Cc1cnn(-c2ccc([N+](=O)[O-])cc2[N+](=O)[O-])c1N`, for which the result with Staphylococcus aureus [1], in the test on Streptococcus pyogenes and with Streptococcus pneumoniae was inactive.
